Measurements published in patent US20240344145A1, “PHARMACOGENOMICS SCORE TO MAKE DECISIONS ON THERAPY AUGMENTATION IN AML” (University of Florida Research Foundation, Incorporated, priority 2021, published 2024).

Test system: ara-C metabolic pathway genes
Test: Association of ara-C pathway SNP genotypes with MRD1, EFS and OS in AML02 (logistic regression and Cox models; also within LDAC and HDAC arms)
Parameters: species or system human
Conditions: within arm of AML02
Source text: Genomic DNA from patients enrolled in the multi-site St. Jude AML02 trial was genotyped for 155 SNPs in 16 genes of relevance to ara-C pharmacology using sequenom iPlex platform that uses MALDI-TOF based chemistry at University of Minnesota, Biomedical Genomics Center. SNPs were selected based on previously reported studies. For SNPs lacking literature on genetic variation, SNPs were selected to capture LD blocks (European and African ancestry) on a gene. Of 155 SNPs, 1 SNP was excluded due to low call rate (<90%), 47 SNPs were excluded due to minimum allele frequency of less than 5%, 11 SNPs were excluded due to high LD (r^2>0.9) with other SNPs; two SNPs were excluded because of deviation from Hardy-Weinberg equilibrium. Genotype for the COG-AAML0531 cohort for the selected SNPs was obtained using sequenom platform or TaqMan genotyping assays, and for a few SNPs was extracted from the data available on Illumina 2.5 Omni array. Genotype calls from multiple platforms were confirmed across multiple samples randomly collected from the cohort.
SNP genotype groups in three different modes of inheritance (additive, dominant, and recessive) were tested for association with MRD1 using logistic regression models. Odds ratio (OR) and 95% confidence interval (CI) were calculated for each test. SNPs with association P-value<0.05 were considered significant. Cox-proportional hazard models were used to evaluate association of genotype groups with EFS or OS. Hazard ratio (HR) and 95% CI were calculated for each test. p-value<0.05 was considered statistically significant. Given initial risk group assignments are well-established prognostic factors associated with outcome, outcome association analysis of SNPs with and without adjusting for risk group was also performed to identify SNPs that are associated with outcome independent of risk group.
SNPs with p<0.15 in risk-adjusted univariate evaluation with clinical endpoints (MRD1, EFS, and OS) were tested for all possible combinations with a maximum of three SNPs per model in multivariable logistic regression models for association with MRD1 and Cox-proportional hazard models for association with EFS and OS. Analysis for up to 3 SNP combinations was restricted due to computational challenges as increasing the maximum number of SNPs per model drastically increases the number of models as 1000 permutations were run for each model. Models were ordered according to their Bayesian Information Criterion (BIC) and weight in favor of each model. One thousand permutation tests were performed for each model to determine statistical significance. The six unique SNPs from the most significant models for EFS and MRD1 were included in the development of the ACS10 score as described in the results section.
The multicenter AML02 clinical trial randomly assigned subjects to receive low dose ara-C (LDAC: 100 mg/m^2; n=91 patients) or high dose ara-C(HDAC: 3 g/m^2; n=75 patients) in combination with daunorubicin and etoposide as the first course of chemotherapy as described above in patient cohort section. Thus, the association of SNPs with outcome within each arm separately was also explored (Table 5).

[1] = rs4742 (DCTD, WT T, VAR C), MOI R
[2] = rs5841 (NME4, WT C, VAR T), MOI D
[3] = rs324148 (SLC29A1, WT C, VAR T), MOI A
[4] = rs407983 (NME4, WT G, VAR C), MOI A
[5] = rs507964 (SLC29A1, WT C, VAR A), MOI R
[6] = rs580032 (CDA, WT T, VAR G), MOI D
[7] = rs602950 (CDA, WT T, VAR C), MOI A
[8] = rs747199 (SLC29A1, WT C, VAR G), MOI D
[9] = rs818196 (CDA, WT G, VAR C), MOI D
[10] = rs1048977 (CDA, WT C, VAR T), MOI D
[11] = rs1138729 (RRM2, WT A, VAR G), MOI D
[12] = rs2072671 (CDA, WT A, VAR C), MOI A
[13] = rs2396243 (SLC29A1, WT G, VAR A), MOI D
[14] = rs3088062 (CMPK1, WT T, VAR C), MOI A
[15] = rs3743162 (SLC28A1, WT C, VAR T), MOI D
[16] = rs3829540 (NME3, WT G, VAR A), MOI D
[17] = rs3925058 (CMPK1, WT T, VAR C), MOI D
[18] = rs4247411 (SLC28A1, WT C, VAR T), MOI D
[19] = rs4271567 (SLC28A1, WT T, VAR A), MOI R
[20] = rs4643786 (DCK, WT T, VAR C), MOI R

Nc1ccn([C@@H]2O[C@H](CO)[C@@H](O)[C@@H]2O)c(=O)n1 [LDAC, cytarabine]
EFS HR (95% CI) [1]: 1.49 (0.93-2.4) | MRD1 OR (95% CI) [1]: 1.19 (0.57-2.46) | OS HR (95% CI) [1]: 1.96 (1.2-3.21) | EFS HR (95% CI) [2]: 0.94 (0.68-1.31) | MRD1 OR (95% CI) [2]: 0.7 (0.45-1.08) | OS HR (95% CI) [2]: 0.86 (0.58-1.27) | EFS HR (95% CI) [3]: 1.35 (0.85-2.13) | MRD1 OR (95% CI) [3]: 0.37 (0.17-0.78) | OS HR (95% CI) [3]: 1.14 (0.64-2.04) | EFS HR (95% CI) [4]: 1.36 (0.88-2.09) | MRD1 OR (95% CI) [4]: 0.92 (0.53-1.59) | OS HR (95% CI) [4]: 1.73 (1-2.98) | EFS HR (95% CI) [5]: 1.54 (1.04-2.29) | MRD1 OR (95% CI) [5]: 1.41 (0.76-2.62) | OS HR (95% CI) [5]: 1.1 (0.64-1.88) | EFS HR (95% CI) [6]: 0.86 (0.51-1.44) | MRD1 OR (95% CI) [6]: 1.16 (0.63-2.13) | OS HR (95% CI) [6]: 1.12 (0.65-1.9) | EFS HR (95% CI) [7]: 0.56 (0.33-0.96) | MRD1 OR (95% CI) [7]: 0.57 (0.3-1.08) | OS HR (95% CI) [7]: 0.68 (0.36-1.26) | EFS HR (95% CI) [8]: 0.88 (0.61-1.28) | MRD1 OR (95% CI) [8]: 1.18 (0.75-1.88) | OS HR (95% CI) [8]: 0.55 (0.3-1) | EFS HR (95% CI) [9]: 1.18 (0.85-1.64) | MRD1 OR (95% CI) [9]: 1.28 (0.82-2) | OS HR (95% CI) [9]: 1.09 (0.73-1.62) | EFS HR (95% CI) [10]: 1.48 (1.06-2.08) | MRD1 OR (95% CI) [10]: 1.21 (0.79-1.85) | OS HR (95% CI) [10]: 1.14 (0.77-1.69) | EFS HR (95% CI) [11]: 1.55 (1.11-2.18) | MRD1 OR (95% CI) [11]: 1.19 (0.73-1.94) | OS HR (95% CI) [11]: 1.41 (0.93-2.14) | EFS HR (95% CI) [12]: 0.58 (0.35-0.95) | MRD1 OR (95% CI) [12]: 0.57 (0.31-1.04) | OS HR (95% CI) [12]: 0.68 (0.38-1.23) | EFS HR (95% CI) [13]: 1.56 (1.12-2.16) | MRD1 OR (95% CI) [13]: 0.92 (0.59-1.43) | OS HR (95% CI) [13]: 1.59 (1.07-2.36) | EFS HR (95% CI) [14]: 1.66 (0.99-2.8) | MRD1 OR (95% CI) [14]: 2.37 (1.06-5.28) | OS HR (95% CI) [14]: 1.63 (0.89-3.01) | EFS HR (95% CI) [15]: 0.82 (0.56-1.19) | MRD1 OR (95% CI) [15]: 0.77 (0.48-1.23) | OS HR (95% CI) [15]: 1.07 (0.71-1.64) | EFS HR (95% CI) [16]: 1.23 (0.89-1.71) | MRD1 OR (95% CI) [16]: 1.15 (0.73-1.8) | OS HR (95% CI) [16]: 1.22 (0.82-1.82) | EFS HR (95% CI) [17]: 0.7 (0.51-0.97) | MRD1 OR (95% CI) [17]: 0.6 (0.38-0.95) | OS HR (95% CI) [17]: 0.76 (0.51-1.13) | EFS HR (95% CI) [18]: 1.05 (0.73-1.51) | MRD1 OR (95% CI) [18]: 0.94 (0.59-1.51) | OS HR (95% CI) [18]: 1.03 (0.67-1.59) | EFS HR (95% CI) [19]: 1 (0.69-1.46) | MRD1 OR (95% CI) [19]: 0.76 (0.46-1.28) | OS HR (95% CI) [19]: 1.12 (0.72-1.74) | EFS HR (95% CI) [20]: 2.15 (1.28-3.64) | MRD1 OR (95% CI) [20]: 2.34 (0.76-7.15) | OS HR (95% CI) [20]: 1.7 (0.92-3.11)
